Assay results reported in patent publication US11207277B2, “Methods of treating diseases associated with high-fat diet and vitamin a deficiency using retinoic acid receptor agonists” (Cornell University, priority 2013, dated 2021).
“Also recorded” adds a separate entry of the source.

Legend:
hepatic lipids = assay: Oil red O staining of liver sections; assay type: in vivo; conditions: HF diet mice + AC261066 or CD1530; vs HF-vehicle
Excerpt: (§1) WT male C57/BL6 male mice were maintained on either a standard laboratory chow-fed diet (CFD) with 13% kcal fat, (diet #5053, Lab Diet, Inc, St. Louis, Mo.) or a high fat, western style diet (HFD) with 60% kcals from fat, (diet #58126, Lab Diet, Inc., St. Louis, Mo.) for 4 months. One month after the start of the high fat diet treatment, the high fat diet group was further split into 2 groups for 3 months: i) high fat diet and the drinking water containing 1% DMSO; ii) high fat diet and the drinking water containing 1.5 mg/100 ml AC261066, a specific RARβ agonist. Then mice were sacrificed by cervical dislocation. Blood and various tissue samples were harvested.
Staining. Fresh mouse liver samples were embedded in optimal cutting temperature (OCT) medium and immediately frozen to −70 centigrade. Cryosections were then fixed in 4% formaldehyde for 1 hr at room temp. Slides were then rinsed three times in deionized water (dH2O) for 30 s, followed by treatment with 0.5% Triton X-100 in PBS for 5 min. Sections were then washed three times with PBS for 5 min. Samples were with incubated 2% bovine serum albumin (BSA) for 30 min at room temperature to block for unspecific antibody binding. Following blocking, sections were washed three times in PBS and incubated with mouse monoclonal antibody against α-SMA (1:500) (Dako, Inc) for 24 h at 4° C. […]

α-SMA = α-SMA immunofluorescence of liver sections (hepatic stellate cell activation); assay type: in vivo; conditions: HF diet mice + AC261066 or CD1530; vs HF-vehicle
Excerpt: as §1
Staining. Fresh mouse liver samples were embedded in optimal cutting temperature (OCT) medium and immediately frozen to −70 centigrade. Cryosections were then fixed in 4% formaldehyde for 1 hr at room temp. Slides were then rinsed three times in deionized water (dH2O) for 30 s, followed by treatment with 0.5% Triton X-100 in PBS for 5 min. Sections were then washed three times with PBS for 5 min. Samples were with incubated 2% bovine serum albumin (BSA) for 30 min at room temperature to block for unspecific antibody binding. Following blocking, sections were washed three times in PBS and incubated with mouse monoclonal antibody against α-SMA (1:500) (Dako, Inc) for 24 h at 4° C. After 24 h sections were washed three times in PB and incubated with Alexa-Flour-488 anti-mouse secondary anti-body (1:500) (Invitrogen, Inc) for 30 min at room temperature. Sections were then washed three times in PBS and incubated with working strength oil-red O solution for 30 minutes at room temperature. Sections were then rinsed for 30 minutes under running tap water and cover-slipped with Vectashield hard mount plus DAPI (Vector Labs, Inc).

[1] = test system: retinyl palmitate and retinol; assay: HPLC analysis of liver retinoids; assay type: in vivo, mice
Excerpt: as §1
The frozen liver tissue samples (˜100 mg) were homogenized in 500 μl cold phosphate-buffered saline (PBS). In addition, 100 μl serum was diluted in cold PBS to total volume of 500 μl. Retinyl acetate was added to each sample before the retinoid extraction for the calculation of extraction efficiency. The retinoids were extracted into 350 μl of organic solution (acetonitrile/butanol, 50:50, v/v) in the dark. The high performance liquid chromatography (HPLC) was performed using a Waters Millennium system (Waters). Each sample (100 μl of the 350 μl) was loaded onto an analytical 5-μm reverse phase C18 column (Vydac, Hesperia, Calif.) and eluted at a flow rate of 1.5 ml/min. Two mobile phase gradient systems were used. Retinoids were identified by HPLC based on two criteria: an exact match of the retention times of unknown peaks with those of authentic retinoid standards and identical UV light spectra (220-400 nm) of unknowns against spectra from authentic retinoid standards during HPLC by the use of a photodiode array detector. The amounts of retinoids were calculated from the areas under the peaks detected at the wave-length of 325 nm. The levels of retinol and retinyl esters were normalized to the tissue weight.

renal lipid accumulation = assay: Hematoxylin and eosin staining of kidney sections; assay type: in vivo; conditions: HF diet mice + AC261066 or CD1530; vs HF-vehicle
Excerpt: as §1
At sacrifice, fresh mouse liver samples were fixed in 4% formaldehyde solution for 24 hr and embedded in paraffin blocks. Kidney paraffin sections were cut 5 microns thick and mounted on glass slides and stained with hematoxylin and eosin (H and E) using standard protocols.

TNF-α = assay: Semi-quantitative PCR liver, TNF-α; assay type: in vivo; conditions: HF diet mice + AC261066 or CD1530
Excerpt: as §1
(§2) Total RNA was extracted from mouse tissues using TRIzol reagent (Life technologies) and (1 μg) was used to synthesize cDNA. cDNA synthesis was performed at 42° C. for 1 h in a final volume of 20 μl using qScript (Quanta, MD). Semi-quantitative PCR were performed Taq DNA polymerase (Invitrogen, CA). Three step PCR was run as follows: 94° C. for 30 s, 58-64° C. for 45 s for primer annealing and 72° C. for 1 min for primer extension. The number of cycles for each primer pair for amplification in the linear range was determined experimentally. PCR products were resolved 2% agarose gels and visualized by staining with ehtidium bromide. Primers for gene expression used were as follows: […]

MCP-1 = assay: Semi-quantitative PCR liver, MCP-1; assay type: in vivo; conditions: HF diet mice + AC261066 or CD1530
Excerpt: as §1, §2

[2] = test system: hepatocyte lipid accumulation; assay: Hematoxylin and eosin staining of liver sections (hepatic steatosis); assay type: in vivo; conditions: HF diet mice 4 months + AC261066 or CD1530; vs HF-vehicle
Excerpt: as §1
At sacrifice, fresh mouse liver samples were fixed in 4% formaldehyde solution for 24 hr and embedded in paraffin blocks. Liver paraffin sections were cut 5 microns thick and mounted on glass slides and stained with hematoxylin and eosin (H and E) using standard protocols.

SREBP1-c = assay: Semi-quantitative PCR liver, SREBP1-c; assay type: in vivo; conditions: HF diet mice + AC261066 or CD1530
Excerpt: as §1, §2

RARβ = assay: RT-PCR of RARβ in RA-treated ES cells; assay type: cell-based, mouse; conditions: WT ES cells, presence of RA vs untreated
Method: (§3) Mouse J1 wild-type FS cells were cultured as described previously (27). C57BL/6 RARβ heterozygous mice were provided by Dr. Pierre Chambon (Strasbourg-Cedex, France) (26). Homozygous RARβ-null mice were obtained following mating of RARβ heterozygous mice. Blastocysts were harvested on day E3.5 and individually cultured on ES cell medium as previously described (28). Various markers for endodermal (day 5), pancreatic progenitor (day 11), endocrine progenitor (day 14) and endocrine (day 17) differentiation were analyzed by semi-quantitative RT-PCR in J1 wild-type and RARβ KO ESCs. Primers were designed around introns whenever possible. Total RNA extraction, semi-quantitative and quantitative PCR reactions were performed as previously described (18). Amplified PCR products were resolved on 1.5% agarose gels and visualized by staining with ethidium bromide. PCR bands were sequenced for verification of the correct amplicon. Quantitation of semi-quantitative gels was performed using ImageJ software (National Institutes of Health) from three experimental biological repeats.

Cyp26a1 = assay: RT-PCR of Cyp26a1 in RA-treated WT and RARβ KO ES cells; assay type: cell-based, mouse
Method: as §3

[3] = HF diet mice + AC261066 or CD1530 vs controls

Compound	hepatic lipid accumulation (oil red O) (hepatic lipids)	α-SMA positive staining in liver (HSC activation) (α-SMA)	liver retinol compared to controls [1, 3]	liver retinyl palmitate compared to controls [1, 3]	retinyl palmitate levels in the liver lower than HF-vehicle treated mice ([1]; HF diet mice + CD1530)	renal lipid infiltration/accumulation (H and E) (renal lipid accumulation)	mRNA levels of TNF-α in liver (TNF-α)	mRNA levels of MCP-1 in liver (MCP-1)	hepatocyte lipid infiltration / hepatic steatosis (H and E) [2]	mRNA levels of SREBP1-c in liver (SREBP1-c)	RARβ transcript signal (RARβ)	Cyp26a1 expression (Cyp26a1)
O=C(O)c1ccc(-c2ccc3cc(O)c(C45CC6CC(CC(C6)C4)C5)cc3c2)cc1 [CD1530]	not observed; also recorded: no evidence decreased lipid accumulation	no evidence decreased lipid accumulation or α-SMA expression intensity or patterns	significantly lowered	significantly lowered	~48%	no decrease in renal lipid accumulation	markedly elevated	markedly elevated	no decrease in hepatic lipid accumulation	markedly higher	–	–
CC1=C(/C=C/C(C)=C/C=C/C(C)=C/C(=O)O)C(C)(C)CCC1 [RA, all trans-retinoic acid]	–	–	–	–	–	–	–	–	–	–	stronger RARβ signal	RA-dependent Cyp26a1 expression was observed in both WT and RARβ KO ES cells
